Values of other authors as cited in publication PMC5572576 (The Lancet. Oncology, 2017).
Like-named read-outs stand apart in the source and are kept apart here.

How the values were obtained:
patients with R/R AML [1] = settings: cited from earlier work
patients with R/R AML [2] = settings: cited from earlier work; remark: listed apart in the source
[3] = tested on: patients with newly diagnosed AML aged <60 years; settings: added to intensive chemotherapy; cited from earlier work

Structure (SMILES): CO[C@@H]1[C@H](N(C)C(=O)c2ccccc2)C[C@H]2O[C@]1(C)n1c3ccccc3c3c4c(c5c6ccccc6n2c5c31)C(=O)NC4 [midostaurin]
- CR (patients with R/R AML [1]): CR was not achieved
- Patients with a reduction in blast counts (patients with R/R AML [1]; patients with FLT3WT): 42%
- Patients with a reduction in blast counts (patients with R/R AML [1]; patients with FLT3 mutations): 71%

Structure (SMILES): CC(C)(C)c1cc(NC(=O)Nc2ccc(-c3cn4c(n3)sc3cc(OCCN5CCOCC5)ccc34)cc2)no1 [quizartinib]
- Median OS (patients with R/R AML [2]; FLT3-ITD subgroup): 18 weeks
- Median OS (patients with R/R AML [2]; entire study population): 14 weeks

Structure (SMILES): CNC(=O)c1cc(Oc2ccc(NC(=O)Nc3ccc(Cl)c(C(F)(F)F)c3)cc2)ccn1 [sorafenib]
- 3-year event-free survival (EFS) rate [3]: 40%
